Results from PubChem BioAssay AID2060612 (Molecular Pharmacology Branch, DTP, NCI, 2025).

Tested on: 565232-114-T-J1-PDC complex spheroid viability
Assay: Anticancer human tumor 565232-114-T-J1-PDC patient-derived bladder carcinoma cell line growth inhibition [CLK]
Settings: for IC50: curve of first compound; for viability, T/C: stronger effect = lower value
Method in brief: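 Multi-cell-type spheroids combined patient-derived tumor cells with HUVEC endothelial cells and human mesenchymal stem cells. Paired agents were dosed in half-log steps down from about clinical Cmax, or from 10 microM where Cmax was unknown.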

[1] = second compound 0.0316 µM, first compound 0.0316 µM
[2] = second compound 0.0316 µM, first compound 0.1 µM
[3] = second compound 0.1 µM, first compound 0.0316 µM
[4] = second compound 0.1 µM, first compound 0.1 µM
[5] = second compound 0.316 µM, first compound 0.0316 µM
[6] = second compound 0.316 µM, first compound 0.1 µM
[7] = second compound 1 µM, first compound 0.0316 µM
[8] = second compound 1 µM, first compound 0.1 µM
[9] = second compound 3.16 µM, first compound 0.0316 µM
[10] = second compound 3.16 µM, first compound 0.1 µM
[11] = second compound 10 µM, first compound 0.0316 µM
[12] = second compound 10 µM, first compound 0.1 µM
[13] = second compound 0.0316 µM, first compound 0.316 µM
[14] = second compound 0.0316 µM, first compound 1 µM
[15] = second compound 0.0316 µM, first compound 3.16 µM
[16] = second compound 0.0316 µM, first compound 10 µM
[17] = second compound 0.1 µM, first compound 0.316 µM
[18] = second compound 0.1 µM, first compound 1 µM
[19] = second compound 0.1 µM, first compound 3.16 µM
[20] = second compound 0.1 µM, first compound 10 µM
[21] = second compound 0.316 µM, first compound 0.316 µM
[22] = second compound 0.316 µM, first compound 1 µM
[23] = second compound 0.316 µM, first compound 3.16 µM
[24] = second compound 0.316 µM, first compound 10 µM
[25] = second compound 1 µM, first compound 0.316 µM
[26] = second compound 1 µM, first compound 1 µM
[27] = second compound 1 µM, first compound 3.16 µM
[28] = second compound 1 µM, first compound 10 µM
[29] = second compound 3.16 µM, first compound 0.316 µM
[30] = second compound 3.16 µM, first compound 1 µM
[31] = second compound 3.16 µM, first compound 3.16 µM
[32] = second compound 3.16 µM, first compound 10 µM
[33] = second compound 10 µM, first compound 0.316 µM
[34] = second compound 10 µM, first compound 1 µM
[35] = second compound 10 µM, first compound 3.16 µM
[36] = second compound 10 µM, first compound 10 µM
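Further: spheroids exposed to compounds for 7 days before readout.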
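Wherever viability, T/C is given: 100% = DMSO vehicle wells with luminescence normalized to vehicle control.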

In the case of `Cn1ncnc1[C@H]1c2n[nH]c(=O)c3cc(F)cc(c23)N[C@@H]1c1ccc(F)cc1` + CNC(=O)c1ccc(Nc2nc(OC3CCCC3)c3c(-c4ccc5nc(C)oc5c4)c[nH]c3n2)c(OC)c1, the IC50 (second compound 0.0316 µM) is reported as greater than 100 nM, the IC50 (second compound 0.1 µM) is reported as less than 0.316 nM and the IC50 (second compound 0.316 µM) is reported as less than 0.316 nM. It also gave an IC50 (second compound 1 µM) of less than 0.316 nM, an IC50 (second compound 3.16 µM) of less than 0.316 nM and an IC50 (second compound 10 µM) of less than 0.316 nM. It also gave a viability, T/C (second compound 0.0316 µM, first compound 0.000316 µM) of 107%, a viability, T/C (second compound 0.0316 µM, first compound 0.001 µM) of 81.8% and a viability, T/C (second compound 0.0316 µM, first compound 0.00316 µM) of 94.9%. It also gave a viability, T/C (second compound 0.0316 µM, first compound 0.01 µM) of 95%, a viability, T/C [1] of 84.8% and a viability, T/C [2] of 53.2%. The viability, T/C (second compound 0.1 µM, first compound 0.000316 µM) was 50%, the viability, T/C (second compound 0.1 µM, first compound 0.001 µM) was 44.4% and the viability, T/C (second compound 0.1 µM, first compound 0.00316 µM) was 53.3%. The viability, T/C (second compound 0.1 µM, first compound 0.01 µM) was 43.6%, the viability, T/C [3] was 34.7% and the viability, T/C [4] was 23.3%. The viability, T/C (second compound 0.316 µM, first compound 0.000316 µM) was 31.4%, the viability, T/C (second compound 0.316 µM, first compound 0.001 µM) was 29.8% and the viability, T/C (second compound 0.316 µM, first compound 0.00316 µM) was 30.4%. For the same compound, the viability, T/C (second compound 0.316 µM, first compound 0.01 µM) was 26.4%, the viability, T/C [5] was 25.7% and the viability, T/C [6] was 15.4%. For the same compound, the viability, T/C (second compound 1 µM, first compound 0.000316 µM) was 21.9%, the viability, T/C (second compound 1 µM, first compound 0.001 µM) was 22.3% and the viability, T/C (second compound 1 µM, first compound 0.00316 µM) was 20%. It also gave a viability, T/C (second compound 1 µM, first compound 0.01 µM) of 16.9%, a viability, T/C [7] of 22.2% and a viability, T/C [8] of 15.7%. For the same compound, the viability, T/C (second compound 3.16 µM, first compound 0.000316 µM) was 12.3%, the viability, T/C (second compound 3.16 µM, first compound 0.001 µM) was 20.6% and the viability, T/C (second compound 3.16 µM, first compound 0.00316 µM) was 18.7%. It also gave a viability, T/C (second compound 3.16 µM, first compound 0.01 µM) of 16.4%, a viability, T/C [9] of 20.2% and a viability, T/C [10] of 12.4%. The viability, T/C (second compound 10 µM, first compound 0.000316 µM) was 20.4%, the viability, T/C (second compound 10 µM, first compound 0.001 µM) was 16.1% and the viability, T/C (second compound 10 µM, first compound 0.00316 µM) was 20.3%. For the same compound, the viability, T/C (second compound 10 µM, first compound 0.01 µM) was 19.5%, the viability, T/C [11] was 17.8% and the viability, T/C [12] was 11.4%.

For `Nc1ccn(C2OC(CO)C(O)C2(F)F)c(=O)n1` (stereo unspecified) + CNC(=O)c1ccc(Nc2nc(OC3CCCC3)c3c(-c4ccc5nc(C)oc5c4)c[nH]c3n2)c(OC)c1, the IC50 (second compound 0.0316 µM) was 36 nM, the IC50 (second compound 0.1 µM) was less than 31.6 nM and the IC50 (second compound 0.316 µM) was less than 31.6 nM. It also gave an IC50 (second compound 1 µM) of less than 31.6 nM, an IC50 (second compound 3.16 µM) of less than 31.6 nM and an IC50 (second compound 10 µM) of less than 31.6 nM. It also gave a viability, T/C [1] of 54.3%, a viability, T/C [2] of 18.6% and a viability, T/C [13] of 8.71%. It also gave a viability, T/C [14] of 7.4%, a viability, T/C [15] of 11.2% and a viability, T/C [16] of 13.6%. The viability, T/C [3] was 35.7%, the viability, T/C [4] was 22% and the viability, T/C [17] was 8.15%. The viability, T/C [18] was 9.21%, the viability, T/C [19] was 13.3% and the viability, T/C [20] was 11.8%. The viability, T/C [5] was 26.2%, the viability, T/C [6] was 19.5% and the viability, T/C [21] was 8.41%. It also gave a viability, T/C [22] of 7.45%, a viability, T/C [23] of 12.3% and a viability, T/C [24] of 12.2%. For the same compound, the viability, T/C [7] was 16.9%, the viability, T/C [8] was 14.9% and the viability, T/C [25] was 8.75%. For the same compound, the viability, T/C [26] was 7.6%, the viability, T/C [27] was 9.48% and the viability, T/C [28] was 8.93%. For the same compound, the viability, T/C [9] was 19.3%, the viability, T/C [10] was 14.5% and the viability, T/C [29] was 5.99%. It also gave a viability, T/C [30] of 5.99%, a viability, T/C [31] of 6.76% and a viability, T/C [32] of 6.01%. The viability, T/C [11] was 17.7%, the viability, T/C [12] was 13.9% and the viability, T/C [33] was 6.66%. For the same compound, the viability, T/C [34] was 6.31%, the viability, T/C [35] was 6.89% and the viability, T/C [36] was 5.15%.

`O=c1[nH]cc(F)c(=O)[nH]1` + CNC(=O)c1ccc(Nc2nc(OC3CCCC3)c3c(-c4ccc5nc(C)oc5c4)c[nH]c3n2)c(OC)c1 gave an IC50 (second compound 0.0316 µM) greater than 10000 nM, an IC50 (second compound 0.1 µM) of less than 31.6 nM and an IC50 (second compound 0.316 µM) of less than 31.6 nM. It also gave an IC50 (second compound 1 µM) of less than 31.6 nM, an IC50 (second compound 3.16 µM) of less than 31.6 nM and an IC50 (second compound 10 µM) of less than 31.6 nM. It also gave a viability, T/C [1] of 84.3%, a viability, T/C [2] of 96.8% and a viability, T/C [13] of 97.1%. It also gave a viability, T/C [14] of 108%, a viability, T/C [15] of 87.3% and a viability, T/C [16] of 72.4%. The viability, T/C [3] was 44%, the viability, T/C [4] was 50% and the viability, T/C [17] was 44%. The viability, T/C [18] was 48%, the viability, T/C [19] was 41% and the viability, T/C [20] was 46.1%. It also gave a viability, T/C [5] of 29.7%, a viability, T/C [6] of 31.4% and a viability, T/C [21] of 31.2%. It also gave a viability, T/C [22] of 36%, a viability, T/C [23] of 35.3% and a viability, T/C [24] of 40.1%. The viability, T/C [7] was 20.1%, the viability, T/C [8] was 21% and the viability, T/C [25] was 19.4%. For the same compound, the viability, T/C [26] was 23.1%, the viability, T/C [27] was 23.8% and the viability, T/C [28] was 28.5%. It also gave a viability, T/C [9] of 16.9%, a viability, T/C [10] of 16.4% and a viability, T/C [29] of 17.8%. The viability, T/C [30] was 19.6%, the viability, T/C [31] was 18.6% and the viability, T/C [32] was 21.3%. The viability, T/C [11] was 21.3%, the viability, T/C [12] was 16.1% and the viability, T/C [33] was 18.2%. It also gave a viability, T/C [34] of 19.9%, a viability, T/C [35] of 18.1% and a viability, T/C [36] of 18.9%.
